Reference: the NIST ThermoML archive (doi:10.1016/j.jct.2012.03.003)

Assay: xn = mol fraction of the nth substance listed
Conditions: Liquid, Vibrating tube method

COc1cc2c(cc1O)CC1c3c(cc(O)c(OC)c3-2)CCN1C (stereo not given) [boldine] + CCCO
Conditions	mass density [kg/m3]
313.09 K, 1000 kPa, x1 = 0.0142	812.51
313.09 K, 2000 kPa, x1 = 0.0142	813.26
313.09 K, 3000 kPa, x1 = 0.0142	814.02
313.09 K, 4000 kPa, x1 = 0.0142	814.8
313.09 K, 5000 kPa, x1 = 0.0142	815.58
313.09 K, 6000 kPa, x1 = 0.0142	816.36
313.09 K, 7000 kPa, x1 = 0.0142	817.15
313.09 K, 8000 kPa, x1 = 0.0142	817.95
313.09 K, 9000 kPa, x1 = 0.0142	818.75
313.09 K, 10000 kPa, x1 = 0.0142	819.54
313.09 K, 11000 kPa, x1 = 0.0142	820.32
313.09 K, 12000 kPa, x1 = 0.0142	821.12
313.09 K, 13000 kPa, x1 = 0.0142	821.89
313.09 K, 14000 kPa, x1 = 0.0142	822.65
313.09 K, 15000 kPa, x1 = 0.0142	823.42
313.09 K, 16000 kPa, x1 = 0.0142	824.16
313.09 K, 17000 kPa, x1 = 0.0142	824.91
313.09 K, 18000 kPa, x1 = 0.0142	825.63
313.09 K, 19000 kPa, x1 = 0.0142	826.34
313.09 K, 20000 kPa, x1 = 0.0142	827.03
313.14 K, 1000 kPa, x1 = 0.0046	797.2
313.14 K, 2000 kPa, x1 = 0.0046	797.97
313.14 K, 3000 kPa, x1 = 0.0046	798.75
313.14 K, 4000 kPa, x1 = 0.0046	799.53
313.14 K, 5000 kPa, x1 = 0.0046	800.32
313.14 K, 6000 kPa, x1 = 0.0046	801.13
313.14 K, 7000 kPa, x1 = 0.0046	801.93
313.14 K, 8000 kPa, x1 = 0.0046	802.74
313.14 K, 9000 kPa, x1 = 0.0046	803.55
313.14 K, 10000 kPa, x1 = 0.0046	804.36
313.14 K, 11000 kPa, x1 = 0.0046	805.17
313.14 K, 12000 kPa, x1 = 0.0046	805.97
313.14 K, 13000 kPa, x1 = 0.0046	806.77
313.14 K, 14000 kPa, x1 = 0.0046	807.55
313.14 K, 15000 kPa, x1 = 0.0046	808.32
313.14 K, 16000 kPa, x1 = 0.0046	809.08
313.14 K, 17000 kPa, x1 = 0.0046	809.85
313.14 K, 18000 kPa, x1 = 0.0046	810.58
313.14 K, 19000 kPa, x1 = 0.0046	811.3
313.14 K, 20000 kPa, x1 = 0.0046	812.01
313.15 K, 1000 kPa, x1 = 0.0018	790.99
313.15 K, 1000 kPa, x1 = 0.0077	801.14
313.15 K, 1000 kPa, x1 = 0.0112	807.94
313.15 K, 2000 kPa, x1 = 0.0018	791.76
313.15 K, 2000 kPa, x1 = 0.0077	801.89
313.15 K, 2000 kPa, x1 = 0.0112	808.71
313.15 K, 3000 kPa, x1 = 0.0018	792.55
313.15 K, 3000 kPa, x1 = 0.0077	802.66
313.15 K, 3000 kPa, x1 = 0.0112	809.47
313.15 K, 4000 kPa, x1 = 0.0018	793.33
313.15 K, 4000 kPa, x1 = 0.0077	803.44
313.15 K, 4000 kPa, x1 = 0.0112	810.25
313.15 K, 5000 kPa, x1 = 0.0018	794.13
313.15 K, 5000 kPa, x1 = 0.0077	804.23
313.15 K, 5000 kPa, x1 = 0.0112	811.06
313.15 K, 6000 kPa, x1 = 0.0018	794.94
313.15 K, 6000 kPa, x1 = 0.0077	805.03
313.15 K, 6000 kPa, x1 = 0.0112	811.83
313.15 K, 7000 kPa, x1 = 0.0018	795.75
313.15 K, 7000 kPa, x1 = 0.0077	805.83
313.15 K, 7000 kPa, x1 = 0.0112	812.63
313.15 K, 8000 kPa, x1 = 0.0018	796.57
313.15 K, 8000 kPa, x1 = 0.0077	806.63
313.15 K, 8000 kPa, x1 = 0.0112	813.42
313.15 K, 9000 kPa, x1 = 0.0018	797.38
313.15 K, 9000 kPa, x1 = 0.0077	807.44
313.15 K, 9000 kPa, x1 = 0.0112	814.2
313.15 K, 10000 kPa, x1 = 0.0018	798.19
313.15 K, 10000 kPa, x1 = 0.0077	808.25
313.15 K, 10000 kPa, x1 = 0.0112	815
313.15 K, 11000 kPa, x1 = 0.0018	799.01
313.15 K, 11000 kPa, x1 = 0.0077	809.05
313.15 K, 11000 kPa, x1 = 0.0112	815.81
313.15 K, 12000 kPa, x1 = 0.0018	799.83
313.15 K, 12000 kPa, x1 = 0.0077	809.85
313.15 K, 12000 kPa, x1 = 0.0112	816.58
313.15 K, 13000 kPa, x1 = 0.0018	800.62
313.15 K, 13000 kPa, x1 = 0.0077	810.64
313.15 K, 13000 kPa, x1 = 0.0112	817.36
313.15 K, 14000 kPa, x1 = 0.0018	801.41
313.15 K, 14000 kPa, x1 = 0.0077	811.41
313.15 K, 14000 kPa, x1 = 0.0112	818.14
313.15 K, 15000 kPa, x1 = 0.0018	802.19
313.15 K, 15000 kPa, x1 = 0.0077	812.18
313.15 K, 15000 kPa, x1 = 0.0112	818.89
313.15 K, 16000 kPa, x1 = 0.0018	802.95
313.15 K, 16000 kPa, x1 = 0.0077	812.94
313.15 K, 16000 kPa, x1 = 0.0112	819.65
313.15 K, 17000 kPa, x1 = 0.0018	803.72
313.15 K, 17000 kPa, x1 = 0.0077	813.69
313.15 K, 17000 kPa, x1 = 0.0112	820.39
313.15 K, 18000 kPa, x1 = 0.0018	804.46
313.15 K, 18000 kPa, x1 = 0.0077	814.42
313.15 K, 18000 kPa, x1 = 0.0112	821.12
313.15 K, 19000 kPa, x1 = 0.0018	805.19
313.15 K, 19000 kPa, x1 = 0.0077	815.14
313.15 K, 19000 kPa, x1 = 0.0112	821.85
313.15 K, 20000 kPa, x1 = 0.0018	805.9
313.15 K, 20000 kPa, x1 = 0.0077	815.85
313.15 K, 20000 kPa, x1 = 0.0112	822.53
323.1 K, 1000 kPa, x1 = 0.0018	782.67
323.1 K, 2000 kPa, x1 = 0.0018	783.52
323.1 K, 3000 kPa, x1 = 0.0018	784.36
323.1 K, 4000 kPa, x1 = 0.0018	785.2
323.1 K, 5000 kPa, x1 = 0.0018	786.06
323.1 K, 6000 kPa, x1 = 0.0018	786.91
323.1 K, 7000 kPa, x1 = 0.0018	787.78
323.1 K, 8000 kPa, x1 = 0.0018	788.64
323.1 K, 9000 kPa, x1 = 0.0018	789.49
323.1 K, 10000 kPa, x1 = 0.0018	790.35
323.1 K, 11000 kPa, x1 = 0.0018	791.2
323.1 K, 12000 kPa, x1 = 0.0018	792.05
323.1 K, 13000 kPa, x1 = 0.0018	792.88
323.1 K, 14000 kPa, x1 = 0.0018	793.69
323.1 K, 15000 kPa, x1 = 0.0018	794.51
323.1 K, 16000 kPa, x1 = 0.0018	795.32
323.1 K, 17000 kPa, x1 = 0.0018	796.1
323.1 K, 18000 kPa, x1 = 0.0018	796.89
323.1 K, 19000 kPa, x1 = 0.0018	797.65
323.1 K, 20000 kPa, x1 = 0.0018	798.39
323.11 K, 1000 kPa, x1 = 0.0112	799.52
323.11 K, 1000 kPa, x1 = 0.0142	804.17
323.11 K, 2000 kPa, x1 = 0.0112	800.32
323.11 K, 2000 kPa, x1 = 0.0142	804.99
323.11 K, 3000 kPa, x1 = 0.0112	801.16
323.11 K, 3000 kPa, x1 = 0.0142	805.81
323.11 K, 4000 kPa, x1 = 0.0112	801.99
323.11 K, 4000 kPa, x1 = 0.0142	806.63
323.11 K, 5000 kPa, x1 = 0.0112	802.82
323.11 K, 5000 kPa, x1 = 0.0142	807.51
323.11 K, 6000 kPa, x1 = 0.0112	803.66
323.11 K, 6000 kPa, x1 = 0.0142	808.3
323.11 K, 7000 kPa, x1 = 0.0112	804.52
323.11 K, 7000 kPa, x1 = 0.0142	809.14
323.11 K, 8000 kPa, x1 = 0.0112	805.34
323.11 K, 8000 kPa, x1 = 0.0142	809.97
323.11 K, 9000 kPa, x1 = 0.0112	806.15
323.11 K, 9000 kPa, x1 = 0.0142	810.81
323.11 K, 10000 kPa, x1 = 0.0112	807.01
323.11 K, 10000 kPa, x1 = 0.0142	811.64
323.11 K, 11000 kPa, x1 = 0.0112	807.85
323.11 K, 11000 kPa, x1 = 0.0142	812.47
323.11 K, 12000 kPa, x1 = 0.0112	808.67
323.11 K, 12000 kPa, x1 = 0.0142	813.28
323.11 K, 13000 kPa, x1 = 0.0112	809.47
323.11 K, 13000 kPa, x1 = 0.0142	814.1
323.11 K, 14000 kPa, x1 = 0.0112	810.29
323.11 K, 14000 kPa, x1 = 0.0142	814.89
323.11 K, 15000 kPa, x1 = 0.0112	811.07
323.11 K, 15000 kPa, x1 = 0.0142	815.69
